Laboratory results: patent publication US10117858B2, “Pyridine and pyrazine derivative for the treatment of CF” (Novartis AG, priority 2010, dated 2018)

molecular target: ΔF508-CFTR (Homo sapiens (Human), UniProt P13569, DEL508-508); test: CFTR potentiator assays (membrane potential, IonWorks Quattro, Ussing chamber ion transport); patent does not say which gave the EC50; assay type: cell-based; conditions: Table 1, representative compounds; data measurements described above; read-out: EC50
Source text: CFTR activity can be quantified by measuring the transmembrane potential. The means for measuring the transmembrane potential in a biological system can employ a number of methods including electrophysiological and optical fluorescence-based membrane potential assays.
The optical membrane potential assay utilises a negatively charged potentiometric dye, such as the FLIPR membrane potential dye (FMP) (see Baxter D F, Kirk M, Garcia A F, Raimondi A, Holmqvist M H, Flint K K, Bojanic D, Distefano P S, Curtis R, Xie Y. ‘A novel membrane potential-sensitive fluorescent dye improves cell-based assays for ion channels.’ J Biomol Screen. 2002 February; 7(1):79-85) which when extracellular is bound to a quenching agent. Upon cellular depolarisation the negatively charged dye redistributes to the intracellular compartment, unbinding from the membrane impermeant quench agent, yielding an increase in fluorescence. This change in fluorescence is proportional to the change in transmembrane potential which can result from the activity of CFTR. The changes in fluorescence can be monitored in real time by an appropriately equipped fluorescence detector such as the FLIPR (fluorometric imaging plate reader) in 96 or 384-well microtitre plates.
Chinese hamster ovary (CHO) cells stably expressing the ΔF508-CFTR channel were used for membrane potential experiments. Cells were maintained at 37° C. in 5% v/v CO2 at 100% humidity in Modified Eagles medium (MEM) supplemented with 8% v/v foetal calf serum, 100 µg/ml methotrexate and 100 U/ml penicillin/streptomycin. Cells were grown in 225 cm^2 tissue culture flasks. For membrane potential assays cells were seeded into 96 well plates at 40,000 cells per well, allowed to adhere and then maintained at 26° C. for 48 h to facilitate channel insertion.
The membrane potential screening assay utilised a low chloride ion containing extracellular solution (˜5 mM) combined with a double addition protocol. The first addition was of buffer with or without test compound followed 5 minutes later by an addition of forskolin (1-20 μM)—this protocol favours maximum chloride efflux in response to ΔF508-CFTR activation. The ΔF508-CFTR mediated chloride ion efflux leads to a membrane depolarisation which is optically monitored by the FMP dye.
Low chloride extracellular (mM): 120 Na-gluconate, 1.2 CaCl2, 3.3 KH2PO4, 0.8 K2HPO4, 1.2 MgCl2, 10.0 D-glucose, 20.0 HEPES, pH 7.4 with NaOH FMP dye: made up as per manufacturers' instructions in low chloride extracellular solution detailed above, at 10× final concentration, and stored as 1 mL aliquots at −20° C.
CFTR activity can also be quantified electrophysiologically using the whole-cell configuration of the patch clamp technique (Hamill et al Pflugers Acrhive 1981). This assay directly measures the currents associated with chloride flow through CFTR channels whilst either maintaining or adjusting the transmembrane voltage. This assay can use either single glass micropipettes or parallel planar arrays to measure CFTR activity from native or recombinant cell systems. Currents measured using parallel planar arrays can be quantified using an appropriately equipped instrument such as the IonWorks Quattro (Molecular Devices) or the Qpatch (Sophion). The Quattro system can measure CFTR currents from either a single cell per recording well (HT configuration) or alternatively from a population of 64 cells per well (Population Patch Clamp PPC) (Finkel A, Wittel A, Yang N, Handran S, Hughes J, Costantin J. ‘Population patch clamp improves data consistency and success rates in the measurement of ionic currents.’ J Biomol Screen. 2006 August; 11(5):488-96).
Chinese hamster ovary (CHO) cells stably expressing the ΔF508-CFTR channel were used for IonWorks Quattro experiments. […]

ΔF508-CFTR, sequence (P13569 other isoform, or with tags, fused parts or gaps del F508-F508): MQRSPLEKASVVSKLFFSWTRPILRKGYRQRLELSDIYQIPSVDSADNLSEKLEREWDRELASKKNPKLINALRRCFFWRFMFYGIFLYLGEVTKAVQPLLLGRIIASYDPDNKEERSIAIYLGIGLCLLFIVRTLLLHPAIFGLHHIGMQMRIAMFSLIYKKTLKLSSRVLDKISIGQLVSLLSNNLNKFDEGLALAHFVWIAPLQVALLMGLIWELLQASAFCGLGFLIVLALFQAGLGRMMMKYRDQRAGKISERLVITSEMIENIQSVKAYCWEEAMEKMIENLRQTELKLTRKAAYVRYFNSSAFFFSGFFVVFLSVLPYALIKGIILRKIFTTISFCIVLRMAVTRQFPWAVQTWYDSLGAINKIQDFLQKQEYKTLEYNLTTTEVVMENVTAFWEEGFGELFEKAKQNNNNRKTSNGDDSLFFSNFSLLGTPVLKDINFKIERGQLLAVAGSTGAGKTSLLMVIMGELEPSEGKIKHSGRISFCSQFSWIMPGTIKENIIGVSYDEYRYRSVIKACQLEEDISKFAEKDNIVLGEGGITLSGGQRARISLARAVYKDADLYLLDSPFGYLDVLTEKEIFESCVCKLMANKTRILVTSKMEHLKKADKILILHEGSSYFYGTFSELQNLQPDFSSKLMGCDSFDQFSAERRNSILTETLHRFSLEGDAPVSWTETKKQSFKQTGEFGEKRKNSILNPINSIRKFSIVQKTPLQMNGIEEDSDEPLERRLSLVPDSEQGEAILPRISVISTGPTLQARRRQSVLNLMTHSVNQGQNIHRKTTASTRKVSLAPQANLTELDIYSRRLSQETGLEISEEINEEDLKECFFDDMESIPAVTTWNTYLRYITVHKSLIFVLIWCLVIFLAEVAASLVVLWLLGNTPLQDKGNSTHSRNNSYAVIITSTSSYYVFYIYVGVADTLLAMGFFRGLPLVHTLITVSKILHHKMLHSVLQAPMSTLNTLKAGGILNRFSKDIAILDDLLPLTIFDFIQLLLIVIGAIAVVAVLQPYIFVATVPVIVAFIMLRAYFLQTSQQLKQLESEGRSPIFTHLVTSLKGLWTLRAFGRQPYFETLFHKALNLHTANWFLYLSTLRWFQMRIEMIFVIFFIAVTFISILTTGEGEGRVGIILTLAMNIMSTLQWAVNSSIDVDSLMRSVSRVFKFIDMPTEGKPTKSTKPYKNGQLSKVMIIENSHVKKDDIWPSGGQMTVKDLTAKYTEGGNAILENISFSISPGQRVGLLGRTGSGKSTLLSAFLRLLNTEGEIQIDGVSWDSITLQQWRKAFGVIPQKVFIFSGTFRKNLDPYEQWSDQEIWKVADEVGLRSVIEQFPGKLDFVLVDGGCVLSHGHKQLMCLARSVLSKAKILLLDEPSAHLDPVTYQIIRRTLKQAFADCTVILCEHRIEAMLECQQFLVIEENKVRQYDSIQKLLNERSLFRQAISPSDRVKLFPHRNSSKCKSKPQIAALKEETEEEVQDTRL

Row | SMILES | EC50 [µM]
1 | COc1nc(C(=O)NC[C@](C)(O)C(F)(F)F)c(N)cc1C(F)(F)F [Example 5, 3-Amino-6-methoxy-5-trifluoromethyl-pyridine-2-carboxylic acid ((S)-3,3,3-trifluoro-2-hydroxy-2-methyl-propyl)-amide] | 0.05
2 | COc1nc(C(=O)NC[C@@](C)(O)C(F)(F)F)c(N)cc1C(F)(F)F [Example 6, 3-Amino-6-methoxy-5-trifluoromethyl-pyridine-2-carboxylic acid ((R)-3,3,3-trifluoro-2-hydroxy-2-methyl-propyl)-amide] | 0.426
3 | CC(O)(CNC(=O)c1nc(-c2ccc(Cl)cc2Cl)c(C(F)(F)F)cc1N)C(F)(F)F (single isomer, unassigned) [Example 10, 3-Amino-6-(2,4-dichloro-phenyl)-5-trifluoromethyl-pyridine-2-carboxylic acid (3,3,3-trifluoro-2-hydroxy-2-methyl-propyl)-amide] | 0.112
4 | CC(O)(CNC(=O)c1nc(-c2ccc(Cl)cc2Cl)c(C(F)(F)F)cc1N)C(F)(F)F (single isomer, unassigned) [Example 9, 3-Amino-6-(2,4-dichloro-phenyl)-5-trifluoromethyl-pyridine-2-carboxylic acid (3,3,3-trifluoro-2-hydroxy-2-methyl-propyl)-amide] | 0.09

same assay, conditions: data measurements described above; read-out: CFTR EC50

Row | SMILES | EC50 [µM]
5 | Cc1cc(C(N)=O)ccc1-c1nc(C(=O)NCC(=O)c2ccc(F)cc2)c(N)cc1C(F)(F)F [3-amino-6-(4-carbamoyl-2-methylphenyl)-N-(2-(4-fluorophenyl)-2-oxoethyl)-5-(trifluoromethyl)picolinamide] | > 5
6 | Cn1ccc2ccc(-c3nc(C(=O)NCC(=O)c4ccc(F)cc4)c(N)cc3C(F)(F)F)cc21 [3-amino-N-(2-(4-fluorophenyl)-2-oxoethyl)-6-(1-methyl-1H-indol-6-yl)-5-(trifluoromethyl)picolinamide] | > 5
7 | Cc1ccc(C)n1-c1cc(C(F)(F)F)c(On2nnc3cccnc32)nc1C(=O)NCC(C)(O)C(F)(F)F (centres unmarked) [6-((3H-[1,2,3]triazolo[4,5-b]pyridin-3-yl)oxy)-3-(2,5-dimethyl-1H-pyrrol-1-yl)-N-(3,3,3-trifluoro-2-hydroxy-2-methylpropyl)-5-(trifluoromethyl)picolinamide] | > 5
8 | CN(C)CCCOc1ccc(-c2nc(C(=O)NCC(=O)c3ccc(F)cc3)c(N)nc2C(F)(F)F)cn1 [3-amino-6-(6-(3-(dimethylamino)propoxy)pyridin-3-yl)-N-(2-(4-fluorophenyl)-2-oxoethyl)-5-(trifluoromethyl)pyrazine-2-carboxamide] | > 5
9 | Cn1ccc(CNC(=O)c2nc(Br)c(C(F)(F)F)nc2N)n1 [3-amino-6-bromo-N-((1-methyl-1H-pyrazol-3-yl)methyl)-5-(trifluoromethyl)pyrazine-2-carboxamide] | > 5
10 | CC(C)CN(C)C(=O)c1nc(Br)c(C(F)(F)F)nc1N [3-amino-6-bromo-N-isobutyl-N-methyl-5-(trifluoromethyl)pyrazine-2-carboxamide] | > 5
11 | CN1CCN[C@H](CNC(=O)c2nc(Br)c(C(F)(F)F)nc2N)C1 [(R)-3-amino-6-bromo-N-((4-methylpiperazin-2-yl)methyl)-5-(trifluoromethyl)pyrazine-2-carboxamide] | > 5
12 | Nc1cc(C(F)(F)F)c(Br)nc1C(=O)NCC(=O)O [2-(3-amino-6-bromo-5-(trifluoromethyl)picolinamido)acetic acid] | > 5
13 | CN(C)S(=O)(=O)c1cccc(-c2nc(C(=O)NCC(=O)c3ccc(F)cc3)c(N)cc2C(F)(F)F)c1 [3-amino-6-(3-(N, N-dimethylsulfamoyl)phenyl)-N-(2-(4-fluorophenyl)-2-oxoethyl)-5-(trifluoromethyl)picolinamide] | > 5
14 | CN(Cc1ccccc1)C(=O)c1nc(Br)c(C(F)(F)F)nc1N [3-amino-N-benzyl-6-bromo-N-methyl-5-(trifluoromethyl)pyrazine-2-carboxamide] | > 5
15 | Cc1ccc(-c2nc(C(=O)NCC(=O)c3ccc(F)cc3)c(N)cc2C(F)(F)F)cc1C [3-amino-6-(3,4-dimethylphenyl)-N-(2-(4-fluorophenyl)-2-oxoethyl)-5-(trifluoromethyl)picolinamide] | > 5
16 | Nc1nc(C(F)(F)F)c(Br)nc1C(=O)NCc1cn2ccccc2n1 [3-amino-6-bromo-N-(imidazo[1,2-a]pyridin-2-ylmethyl)-5-(trifluoromethyl)pyrazine-2-carboxamide] | > 5
17 | Nc1nc(C(F)(F)F)c(Br)nc1C(=O)NCCc1cccnc1 [3-amino-6-bromo-N-(2-(pyridin-3-yl)ethyl)-5-(trifluoromethyl)pyrazine-2-carboxamide] | > 5
18 | Nc1nc(C(F)(F)F)c(Br)nc1C(=O)NCCc1ccncc1 [3-amino-6-bromo-N-(2-(pyridin-4-yl)ethyl)-5-(trifluoromethyl)pyrazine-2-carboxamide] | > 5
19 | CCN1CCC[C@H]1CNC(=O)c1nc(Br)c(C(F)(F)F)nc1N [(S)-3-amino-6-bromo-N-((1-ethylpyrrolidin-2-yl)methyl)-5-(trifluoromethyl)pyrazine-2-carboxamide] | > 5
20 | Cn1cncc1CNC(=O)c1nc(Br)c(C(F)(F)F)nc1N [3-amino-6-bromo-N-((1-methyl-1H-imidazol-5-yl)methyl)-5-(trifluoromethyl)pyrazine-2-carboxamide] | > 5
21 | CN1CCN(C(=O)c2nc(Br)c(C(F)(F)F)nc2N)CC1 [(3-amino-6-bromo-5-(trifluoromethyl)pyrazin-2-yl)(4-methylpiperazin-1-yl)methanone] | > 5
22 | Nc1cc(C(F)(F)F)c(-c2ccc3c(c2)CCNC3=O)nc1C(=O)NCC(=O)c1ccc(F)cc1 [3-amino-N-(2-(4-fluorophenyl)-2-oxoethyl)-6-(1-oxo-1,2,3,4-tetrahydroisoquinolin-6-yl)-5-(trifluoromethyl)picolinamide] | > 5
23 | Cn1cnc(CNC(=O)c2nc(Br)c(C(F)(F)F)nc2N)c1 [3-amino-6-bromo-N-((1-methyl-1H-imidazol-4-yl)methyl)-5-(trifluoromethyl)pyrazine-2-carboxamide] | > 5
24 | Nc1nc(C(F)(F)F)c(Br)nc1C(=O)NCc1ncn2ccccc12 [3-amino-6-bromo-N-(imidazo[1,5-a]pyridin-1-ylmethyl)-5-(trifluoromethyl)pyrazine-2-carboxamide] | > 5
25 | Cn1ccnc1CNC(=O)c1nc(Br)c(C(F)(F)F)nc1N [3-amino-6-bromo-N-((1-methyl-1H-imidazol-2-yl)methyl)-5-(trifluoromethyl)pyrazine-2-carboxamide] | > 5
26 | CC(O)(CNC(=O)c1nc(O)c(C(F)(F)F)cc1N)C(F)(F)F (centres unmarked) [3-amino-6-hydroxy-N-(3,3,3-trifluoro-2-hydroxy-2-methylpropyl)-5-(trifluoromethyl)picolinamide] | > 5
27 | CN1CCN(C(=O)c2nc(Br)c(C(F)(F)F)nc2N)CC1c1ccccc1 (centres unmarked) [(3-amino-6-bromo-5-(trifluoromethyl)pyrazin-2-yl)(4-methyl-3-phenylpiperazin-1-yl)methanone] | > 5
28 | Cn1nccc1CNC(=O)c1nc(Br)c(C(F)(F)F)nc1N [3-amino-6-bromo-N-((1-methyl-1H-pyrazol-5-yl)methyl)-5-(trifluoromethyl)pyrazine-2-carboxamide] | > 5
29 | CNc1cc(C(F)(F)F)c(Br)nc1C(=O)NCC(C)(O)C(F)(F)F (centres unmarked) [6-bromo-3-(methylamino)-N-(3,3,3-trifluoro-2-hydroxy-2-methylpropyl)-5-(trifluoromethyl)picolinamide] | > 5
